Laboratory results taken from ChEMBL document CHEMBL1140627, “Adaptive neuro-fuzzy inference system (ANFIS): a new approach to predictive modeling in QSAR applications: a study of neuro-fuzzy modeling of PCP-based NMDA receptor antagonists” (Bioorg Med Chem, 2007).

Biological target: Glutamate NMDA receptor
Assay: Displacement of [3H]TCP from NMDA receptor in rat brain membrane
Type: cell membranes

SMILES	Ki
NC1(c2ccc(F)cc2)CCCCC1	5130 nM
NC1(c2cccc(O)c2)CCCCC1	225 nM
c1ccc(C2(N3CCCCC3)CCCCC2)cc1 [PHENCYCLIDINE]	70 nM
